Data reported in patent publication US20110053897A1 (IRM LLC, priority 2009, published 2011).
Where two headings read alike, the source gives them in different places.

Target: T1, Syk kinase (Homo sapiens, UniProt P43405)
T1 construct: purchased
Experiment: Syk kinase inhibition, Caliper LabChip off-chip mobility-shift kinase assay
Assay type: biochemical
Settings: read-out: Syk Enzyme IC50
Procedure: Compounds of the examples and Table 1 provided herein were assayed to measure their capacity to inhibit Syk kinase.
Compounds of the examples and Table 1 provided herein were assessed for their ability to inhibit Syk kinase by utilizing Caliper Life Sciences' proprietary LabChip™ technology. The off-chip incubation mobility-shift kinase assay uses a microfluidic chip to measure the conversion of a fluorescent peptide substrate to a phosphorylated product. The reaction mixture, from a microtiter plate well, is introduced through a capillary sipper onto the chip, where the nonphosphorylated substrate and phosphorylated product are separated by electrophoresis and detected via laser induced fluorescence. […] The phosphorylated product migrates through the chip faster than the non-phosphorylated substrate, and signals from the two forms of the peptide appear as distinct peaks. Caliper's data analysis software (HTSWA) determines peak heights, from which the ratio of product to the peak sum P/(P+S) and percent (%) conversion is calculated. This value is used to compare compound wells to control wells present on the plate, and thereby determine the % inhibition values for the compound. The formula used to calculate % inhibition is as follows, where C100% is the average % conversion of the 100% activity wells and Co% is the average % conversion of the 0% activity wells: (1−(% conversionofsample−C0%)/(C100%−C0%))*100.
Compounds (10 mM stocks in 100% DMSO) are diluted to a final concentration of 5 μM for single point inhibition experiments, and a series dilution of 10, 3, 1, 0.3, 0.1, 0.03, 0.01, 0.003, 0.001, 0.0003, 0.0001, and 0.00003 μM were made for IC50 determination. Generally, 12 μL of enzyme buffer containing purified kinase (various amount; various suppliers), 100 mM HEPES, pH 7.5, 1 mM DTT (Calbiochem, 2333153), 10 mM MgCl2 (Sigma, M-1028) or 10 mM MnCl2 (Sigma, M-1787) (assay specific), and 0.002% Brij-35 (Sigma, B4184) are added to each well. Compound and enzyme are allowed to pre-incubate for 15 minutes. 12 μL of peptide/ATP buffer containing 100 mM HEPES, pH 7.5, 1.5 μM fluorescein-labeled peptide (specific to kinase of interest), ATP (at KM apparent, Sigma, A9187), and 0.002% Brij-35 is then added to each well to initiate the reaction. The final concentration of DMSO in the well is 4%. Generally, reactions are incubated for 1 to 1.5 hours at room temperature to obtain adequate conversion of peptide to phosphorylated product in the linear range of the reaction. Reactions are terminated with the addition of 45 μL of Stop Buffer (containing 20 mM EDTA). Plates are then read on the LabChip 3000 using a 12-sipper LabChip. % conversion values and % inhibition values are obtained as provided and IC50 curves of compounds are generated using GraphPad Prism Version 4 or 5.01, or XLfit Version 4.3.2. When using GraphPad Prism, a nonlinear curve fit using the sigmoidal dose response—variable slope fit was used to graph IC50 curves and determine IC50 values and hillslopes. When using XLfit, Fit Model 205 (4-Parameter Logistic Model) is used to generate and fit the IC50 curve.

Row | IC50 (Caliper LabChip assay) | IC50 | Compound
1 | 43 nM | – | CCC(C)(C)Nc1nc(-c2cnc(N)nc2)cc2cc[nH]c(=O)c12 [compound 893]
2 | – | 7 nM | COCC(O)CN1CCC(c2ccc(Nc3nc(-c4cncc(OC)n4)cc4cc[nH]c(=O)c34)cc2C)CC1 (centres unmarked) [compound 142]
3 | 359 nM | – | Nc1nc(Nc2nccc(O)n2)cc2ccn(CCO)c(=O)c12 [compound 812]
4 | 117 nM | – | N#CCn1ccc2cc(-c3cnc(N)nc3)nc(NC3CCCC3)c2c1=O [compound 756]
5 | – | 604 nM | CCNC(=O)c1ccc(Nc2nc(Nc3cnccn3)cc3ccn(C)c(=O)c23)cc1 [compound 381]
6 | – | 201 nM | Cc1ccnc(Nc2cc3cc[nH]c(=O)c3c(NCC3CC3)n2)c1 [compound 285]
7 | 56 nM | – | O=c1c2c(N[C@H]3CC[C@@H](O)CC3)nc(Nc3cnccn3)cc2ccn1CC(O)C(F)(F)F (some centres unmarked) [compound 1012]
8 | – | 17 nM | Cc1ccnc(Nc2cc3cc[nH]c(=O)c3c(N[C@H]3CC[C@@H](O)CC3)n2)c1 [compound 303]
9 | – | 60 nM | CCN1CCN(c2n[nH]c3cc(Nc4nc(-c5cncc(C(=O)N6CCOCC6)c5)cc5cc[nH]c(=O)c45)ccc23)CC1 [compound 206]
10 | – | 11.4 nM | CC1(Nc2nc(Nc3cnccn3)cc3ccn(CCO)c(=O)c23)CCC1 [compound 458]
11 | – | 78 nM | COc1cncc(-c2cc3cc[nH]c(=O)c3c(Nc3ccc(CCN4CCNC5(CCCC5)C4)cc3)n2)n1 [compound 22]
12 | 21 nM | – | CCC(C)(C)Nc1nc(-c2cnc(N)nc2)cc2ccn(CCO)c(=O)c12 [compound 908]
13 | 67 nM | – | Cc1ccnc(Nc2cc3ccn(CCN4CCOCC4)c(=O)c3c(N[C@H]3CC[C@@H](O)CC3)n2)c1 [compound 993]
14 | – | 361 nM | COc1ccc(Nc2nc(Nc3cnccn3)cc3ccn(C)c(=O)c23)cc1 [compound 365]
15 | – | 34 nM | CC(C)Nc1nc(Nc2cc(CO)ccn2)cc2cc[nH]c(=O)c12 [compound 510]
16 | 164 nM | – | [2H]C([2H])([2H])n1ccc2cc(Nc3cnccn3)nc(NC[C@@H]3CCCO3)c2c1=O [compound 1048]

Row | IC50 (Caliper LabChip assay) | IC50 | Compound
17 | – | 124 nM | Cc1ccnc(Nc2cc3ccn(C)c(=O)c3c(NC3CCC3)n2)c1 [compound 489]
18 | – | 172 nM | CCn1ccc2cc(Nc3cnccn3)nc(NC[C@@H]3CC[C@](C)(O)C3)c2c1=O [compound 415]
19 | – | 5560 nM | CCN1CCC[C@@H]1CNc1nc(Nc2cc(C)ccn2)cc2cc[nH]c(=O)c12 [compound 589]
20 | – | 751 nM | Cn1ccc2cc(Nc3cnccn3)nc(Nc3cccc(S(C)(=O)=O)c3)c2c1=O [compound 390]
21 | – | 809 nM | O=c1[nH]ccc2cc(C3=CCSCC3)nc(Nc3ccc(N4CCOCC4)cc3)c12 [compound 14]
22 | – | 978 nM | Cc1ccnc(Nc2cc3c(F)cn(C)c(=O)c3c(NC(C)C)n2)c1 [compound 567]
23 | 56 nM | – | CC(C)(C)Nc1nc(Nc2cc(CN3CCOCC3)ccn2)cc2ccn(CCO)c(=O)c12 [compound 603]
24 | 12 nM | – | O=c1c2c(NC3CCCC3)nc(Nc3cnccn3)cc2ccn1CC1(CO)COC1 [compound 763]
25 | – | 222 nM | Cc1nc(-c2cc3cc[nH]c(=O)c3c(Nc3ccc(N4C[C@@H](C)O[C@@H](C)C4)nc3)n2)cnc1N [compound 19]
26 | 299 nM | – | CCn1ccc2cc(Nc3cnccn3)nc(NCCC(F)(F)F)c2c1=O [compound 781]
27 | – | 166 nM | Cc1ccnc(Nc2cc3cc[nH]c(=O)c3c(NCCc3cccnc3)n2)c1 [compound 284]
28 | 6 nM | – | CC(C)(C)Nc1nc(Nc2cc(/C(N)=N/O)ccn2)cc2ccn(CCO)c(=O)c12 [compound 869]
29 | – | 20 nM | [2H]C([2H])([2H])n1ccc2cc(Nc3cc(C)ccn3)nc(N[C@H]3CC[C@@H](O)CC3)c2c1=O [compound 378]
30 | 248 nM | – | CC(C)(C)Nc1nc(Nc2cc(C(=O)NCCc3c[nH]cn3)ccn2)cc2ccn(CCO)c(=O)c12 [compound 687]
31 | 35 nM | – | CC(C)(C)Nc1nc(Nc2cc(C(C)(C)O)ncn2)cc2ccn(CCS(C)(=O)=O)c(=O)c12 [compound 739]
32 | – | 915 nM | Cc1ccnc(Nc2cc3cc[nH]c(=O)c3c(NC[C@@H](O)c3cccc(Cl)c3)n2)c1 [compound 539]
